# Test results reported in article PMC10150359 (Journal of Medicinal Chemistry, 2023).
# Legend:
# [1] = test system: VSV-G-pseudotype virus (pVSV-G); experiment: microbe, parasite or virus in culture; type: cell-based; conditions: Vesicular stomatitis virus, read-out: %inh@10 µM (pVSV-G)
# [2] = test system: EBOV-GP-Pseudotype Virus (pEBOV)
# [3] = test system: wild-type Zaire EBOV Mayinga 1976 strain (EBOV May)
# [4] = test system: EBOV-GP-Pseudotype Virus (pEBOV); conditions: cited from earlier work
# [5] = test system: EBOV-GP-Pseudotype Virus (pEBOV); experiment: microbe, parasite or virus in culture; conditions: Zaire ebolavirus, HeLa, 48 h, read-out: EC50 (μM) (pEBOV)
# [6] = test system: wild-type Zaire EBOV Mayinga 1976 strain (EBOV May); experiment: microbe, parasite or virus in culture; conditions: Zaire ebolavirus, Vero C1008, 72 h, read-out: EC50 (μM), replicative EBOV
compound,measurement,setting,value
O=C(CNCCC1CCN(Cc2ccccc2)CC1)Nn1c2ccccc2c2ccccc21 [Compound 1],inhibition at 10 µM,[1],25%
same,SI (pEBOV) (CC50/EC50),[2],19
same,"SI (CC50/EC50), replicative EBOV",[3],11.0
same,IC50,[4],370 nM
same,EC50,[5],0.37 µM
same,EC50,[6],1.5 µM
